From the supplement of paper PMC8253809 come the findings set out here.

The subject of assay [1] is HGGX39 (paediatric high-grade glioma line). Description: EC50 (inflection of fitted growth-inhibition curve) (log10 M). Summed up: (§1)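 Patient-derived pHGG/DIPG cell lines and astrocyte controls were grown on 1% Geltrex-coated 384-well plates and exposed by pin tool to a 10-point threefold dilution series (mean top concentration 35 μM), in triplicate. Exposure was 7 days (iAstro 3 days) at 37 °C, 5% CO2. CellTiter-Glo luminescence was log2-transformed, normalised per plate to % activity between negative (solvent) and positive control wells, and pooled. EC50 and maximal response (yFin) come from the lowest-AICc three- or four-parameter log-logistic fit.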

Assay [2] relates to HGGX6 (H3.3 G34R paediatric high-grade glioma line). Described as above. Summed up: as §1
For assay [3], the system named is HGGX39. Description: maximal growth inhibition (yFin) relative to DMSO / staurosporine; higher = more efficacious. Put shortly: as §1
For assay [4], the system named is HGGX6. The description is as above. Put shortly:
as §1

The test system of the next assay is DIPGX29 (H3.3 K27M diffuse intrinsic pontine glioma line). Description: area under dose-response curve of % growth inhibition (log2 RLU vs DMSO / staurosporine), 1e-11 to 1e-4 M (% x log10 M); higher = more growth inhibition. Put shortly:
(§2)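 On 1% Geltrex-coated 384-well plates, patient-derived pHGG/DIPG cell lines and astrocytes were treated in triplicate across 10 threefold dilutions (mean top concentration 35 μM) for 7 days, with iAstro treated for 3 days, at 37 °C, 5% CO2. Log2-transformed CellTiter-Glo luminescence was normalised per plate to % activity between solvent and positive controls. Area under the curve was obtained by the trapezoid rule from a log-logistic fit, or from a smoothing spline when that fit failed.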

Assay [5] relates to DIPGX37 (H3.3 K27M diffuse intrinsic pontine glioma line). The assay is described as above. Summed up: as §2
Assay [6] relates to HGGX39. Described as above. Summed up: as §2
Assay [7] concerns HGGX6. The description is as above. Summed up: as §2
The test system of assay [8] is DIPGX37. Description: EC50 (inflection of fitted growth-inhibition curve) (log10 M). Summed up: as §1
The test system of assay [9] is DIPGX37. Description: maximal growth inhibition (yFin) relative to DMSO / staurosporine; higher = more efficacious. Summed up: as §1

As to `COc1cc2nccc(Oc3ccc(NC(=O)C4(C(=O)Nc5ccc(F)cc5)CC4)cc3)c2cc1OC` [CABOZANTINIB], the entries for the “EC50 (log10 M)” value with HGGX39 [1] and with HGGX6 [2] were -4.62 and -4.79, respectively. Further, the results for the maximal growth inhibition with HGGX39 [3] and in the assay on HGGX6 [4] were 60.2% and 27.1%, respectively. Also, the “area under dose-response curve” value in the assay on DIPGX29 is 10.6; in the assay on DIPGX37 [5], 12.8; in the assay on HGGX39 [6], 37.5; with HGGX6 [7], 33.
With `CC(=O)O[C@H]1C(=O)[C@@]2(C)[C@H]([C@H](OC(=O)c3ccccc3)[C@]3(O)C[C@H](OC(=O)[C@H](O)[C@@H](NC(=O)c4ccccc4)c4ccccc4)C(C)=C1C3(C)C)[C@]1(OC(C)=O)CO[C@@H]1C[C@@H]2O` [PACLITAXEL], the “EC50 (log10 M)” value was -8.09 with DIPGX37 [8] and -8.21 with HGGX39 [1]. Besides, the values for the maximal growth inhibition with DIPGX37 [9] and in the assay with HGGX39 [3] were 24.3% and 42.5%, respectively. The “area under dose-response curve” value with DIPGX29 worked out at 42.1; with DIPGX37 [5] it was 99.3; in the assay on HGGX39 [6], 179; in the assay on HGGX6 [7] it was 55.2.
As for `COc1cc(Nc2ncc3c(n2)-c2ccc(Cl)cc2C(c2c(F)cccc2OC)=NC3)ccc1C(=O)O` [ALISERTIB], the “EC50 (log10 M)” value was -4.99 with HGGX39 [1] and -5.31 with HGGX6 [2]. Further, the maximal growth inhibition with HGGX39 [3] worked out at 39.1%; in the assay with HGGX6 [4] it was 24.7%. Also, the “area under dose-response curve” value worked out at 52.1 in the assay with DIPGX29, 66.4 in the assay on DIPGX37 [5], 69.3 with HGGX39 [6] and 49.8 in the assay on HGGX6 [7].
On to `Nc1nccc(-c2c(-c3ccc(F)cc3)ncn2C2CCCCC2)n1`, for which the “EC50 (log10 M)” value with HGGX6 [2] is -4.94. Further, the maximal growth inhibition in the assay on HGGX6 [4] was found to be 21%. The “area under dose-response curve” value in the assay on DIPGX29 was 16.4; in the assay on DIPGX37 [5] it was 21.5; in the assay with HGGX39 [6], 21.3; in the assay on HGGX6 [7] it was 31.7.
`CC(C)c1c(C(=O)Nc2ccccc2)c(-c2ccccc2)c(-c2ccc(F)cc2)n1CC[C@@H](O)C[C@@H](O)CC(=O)O` [ATORVASTATIN]: the “EC50 (log10 M)” value with DIPGX37 [8] is -6.26; in the assay on HGGX39 [1], -5.24; with HGGX6 [2], -4.88. Also, the maximal growth inhibition worked out at 22% in the assay on DIPGX37 [9], 84.1% in the assay on HGGX39 [3] and 55.1% in the assay with HGGX6 [4]. Moreover, the “area under dose-response curve” value with DIPGX29 is 48; in the assay with DIPGX37 [5], 66.2; with HGGX39 [6], 108; in the assay on HGGX6 [7] it was 55.5.
For the molecule `CC(C)c1nc(N(C)S(C)(=O)=O)nc(-c2ccc(F)cc2)c1/C=C/[C@@H](O)C[C@@H](O)CC(=O)O` [ROSUVASTATIN], the entries for the “EC50 (log10 M)” value in the assay on DIPGX37 [8], in the assay with HGGX39 [1] and in the assay on HGGX6 [2] were -5.85, -5.45 and -5.54, respectively. Further, the values for the maximal growth inhibition in the assay on DIPGX37 [9], in the assay on HGGX39 [3] and with HGGX6 [4] were 22.7%, 61.4% and 21.2%, respectively. For the same molecule, the “area under dose-response curve” value with DIPGX29 stood at 25.2; in the assay on DIPGX37 [5], 37.5; in the assay with HGGX39 [6], 83.4; with HGGX6 [7] it was 30.4.
As to `CCCSc1ccc2[nH]c(NC(=O)OC)nc2c1` [ALBENDAZOLE], the “EC50 (log10 M)” value in the assay on DIPGX37 [8] is -6.1; in the assay on HGGX39 [1], -6.13; in the assay with HGGX6 [2], -5.18. In addition, the figures for the maximal growth inhibition in the assay with DIPGX37 [9], in the assay on HGGX39 [3] and in the assay on HGGX6 [4] were 28.7%, 32% and 23%, respectively. In addition, the “area under dose-response curve” value in the assay on DIPGX29 was found to be 33.5; in the assay with DIPGX37 [5], 60.2; in the assay on HGGX39 [6], 66; in the assay with HGGX6 [7], 28.7.
With `c1ccc(-c2ccc(C(c3ccccc3)n3ccnc3)cc2)cc1` (stereo unspecified) [BIFONAZOLE], the “EC50 (log10 M)” value in the assay with DIPGX37 [8] is -4.75; with HGGX6 [2] it was -4.81. The values for the maximal growth inhibition with DIPGX37 [9] and in the assay with HGGX6 [4] were 42.4% and 20.1%, respectively. The “area under dose-response curve” value in the assay on DIPGX29 came to 17.3; in the assay on DIPGX37 [5], 31.9; in the assay with HGGX39 [6], 30.5; in the assay on HGGX6 [7], 16.4.
As for `C#CCC(Cc1cnc2nc(N)nc(N)c2n1)c1ccc(C(=O)N[C@@H](CCC(=O)O)C(=O)O)cc1` (stereo partly specified) [PRALATREXATE], the “EC50 (log10 M)” value in the assay with HGGX39 [1] is -8.55; in the assay on HGGX6 [2] it was -7.84. In addition, the maximal growth inhibition in the assay on HGGX39 [3] is 25.5%; with HGGX6 [4], 22.1%. Besides, the “area under dose-response curve” value in the assay on DIPGX29 stood at 66.7; with DIPGX37 [5], 73; with HGGX39 [6] it was 116; with HGGX6 [7], 83.2.
